{"source": "patent US7235559B1", "about": "“Therapeutic quinazoline derivatives” (AstraZeneca AB, priority 1999, dated 2007)", "key": {"aurora2 kinase": {"target": "T1, aurora2 kinase (Homo sapiens, UniProt O14965)", "T1 construct": "made in house; host or cells: Spodoptera frugiperda Sf21 insect cells (baculovirus)", "T1 sequence (O14965 1-403)": "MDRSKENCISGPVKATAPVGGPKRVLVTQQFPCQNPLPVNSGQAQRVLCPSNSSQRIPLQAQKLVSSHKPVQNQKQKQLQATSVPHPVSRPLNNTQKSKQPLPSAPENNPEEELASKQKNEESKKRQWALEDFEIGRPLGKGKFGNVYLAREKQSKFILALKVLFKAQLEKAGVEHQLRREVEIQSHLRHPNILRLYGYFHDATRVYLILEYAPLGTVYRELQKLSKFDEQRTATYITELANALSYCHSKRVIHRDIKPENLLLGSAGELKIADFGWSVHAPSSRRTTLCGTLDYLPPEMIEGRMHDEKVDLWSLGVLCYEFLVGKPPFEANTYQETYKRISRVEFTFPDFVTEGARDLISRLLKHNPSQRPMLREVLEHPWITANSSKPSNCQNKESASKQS", "assay": "In Vitro aurora2 kinase inhibition test", "format": "biochemical"}, "MCF-7 cells [1]": {"tested_on": "MCF-7 cells", "assay": "In Vitro cell proliferation assay, Assay 1 (CyQUANT cell density)", "format": "cell-based", "settings": "Homo sapiens, MCF7, 72 h, MCF-7, 3 days in presence of compound, read-out: concentration giving 50% inhibition of cell proliferation", "excerpt": "(§1) These and other assays can be used to determine the ability of a test compound to inhibit the growth of adherent mammalian cell lines, for example the human tumour cell line MCF7.\nMCF-7 (ATCC HTB-22) or other adherent cells were typically seeded at 1×10^3 cells per well (excluding the peripheral wells) in DMEM (Sigma Aldrich) without phenol red, plus 10% foetal calf serum, 1% L-glutamine and 1% penicillin/streptomycin in 96 well tissue culture treated clear plates (Costar). The following day (day 1), the media was removed from a no treatment control plate and the plate stored at −80° C. The remaining plates were dosed with compound (diluted from 10 mM stock in DMSO using DMEM (without phenol red, 10% FCS, 1% L-glutamine, 1% penicillin/streptomycin). Untreated control wells were included on each plate. After 3 days in the presence/absence of compound (day 4) the media was removed and the plates stored at −80° C. Twenty four hours later the plates were thawed at room temperature and cell density determined using the CyQUANT cell proliferation assay kit (c-7026/c-7027 Molecular Probes Inc.) according to manufacturers directions. Briefly, 200 μl of cell lysis/dye mixture (10 μl of 20× cell lysis buffer B, 190 μl of sterile water, 0.25 μl of CYQUANT GR dye) was added to each well and the plates incubated at room temperature for 5 minutes in the dark. […]"}, "MCF-7 cells [2]": {"tested_on": "MCF-7 cells", "assay": "In Vitro cell proliferation assay, Assay 2 (BrdU incorporation)", "format": "cell-based", "settings": "Homo sapiens, MCF7; MCF-7, 48 hours with compound, 2 hour BrdU labelling; read-out: concentration giving 50% inhibition of BrdU incorporation", "excerpt": "as §1\nThis assay determines the ability of at test compound to inhibit the incorporation of the thymidine analogue, 5′-bromo-2′-deoxy-uridine (BrdU) into cellular DNA. MCF-7 or other adherent cells were typically seeded at 0.8×10^4 cells per well in DMEM (Sigma Aldrich) without phenol red, plus 10% foetal calf serum, 1% L-glutamine and 1% penicillin/streptomycin (50 μl/well) in 96 well tissue culture treated 96 well plates (Costar) and allowed to adhere overnight. […] The optical density of the wells was then determined at 690 nm wavelength using a Titertek Multiscan plate reader. […]"}, "MCF7 cells": {"tested_on": "MCF7 cells", "assay": "In Vitro cell cycle analysis assay (FACS)", "format": "cell-based, human", "settings": "10 μM, 24 hours", "description": "This assay determines the ability of a test compound to arrest cells in specific phases of the cell cycle. Many different mammalian cell lines could be used in this assay and MCF7 cells are included here as an example. MCF-7 cells were seeded at 3×10^5 cells per T25 flask (Costar) in 5 ml DMEM (no phenol red 10% FCS, 1% L-glutamine 1% penicillin/streptomycin). Flasks were then incubated overnight in a humidified 37° C. incubator with 5% CO2. The following day 1 ml of DMEM (no phenol red 10% FCS, 1% L-glutamine 1% penicillin/streptomycin) carrying the appropriate concentration of test compound solubilised in DMSO was added to the flask. A no compound control treatments was also included (0.5% DMSO). The cells were then incubated for a defined time (usually 24 hours) with compound. After this time the media was aspirated from the cells and they were washed with 5 ml of prewarmed (37° C.) sterile PBSA, then detached from the flask by brief incubation with trypsin and followed by resuspension in 10 ml of 1% Bovine Serum Albumin (BSA, Sigma-Aldrich Co.) in sterile PBSA. The samples were then centrifuged at 2200 rpm for 10 min. The supernatant was aspirated and the cell pellet was resuspended in 200 μl of 0.1% (w/v) Tris sodium citrate, 0.0564% (w/v) NaCl, 0.03% (v/v) Nonidet NP40, [pH 7.6]. Propridium Iodide (Sigma Aldrich Co.) was added to 40 μg/ml and RNAase A (Sigma Aldrich Co.) to 100 μg/ml. The cells were then incubated at 37° C. for 30 minutes. The samples were centrifuged at 2200 rpm for 10 min, the supernatant removed and the remaining pellet (nuclei) resuspended in 200 μl of sterile PBSA. […] The samples were then transferred to LPS tubes and DNA content per cell analysed by Fluorescence activated cell sorting (FACS) using a FACScan flow cytometer (Becton Dickinson). Typically 25000 events were counted and recorded using CellQuest v1.1 software (Verity Software). Cell cycle distribution of the population was calculated using Modfit software (Verity Software) and expressed as percentage of cells in G0/G1, S and G2/M phases of the cell cycle. […]"}}}
{"molecule": "COc1cc2ncnc(Nc3cnc(NC(=O)c4ccccc4)nc3)c2cc1OC", "note": "[Compound 6]", "values": [{"measurement": "IC50", "setting": "aurora2 kinase", "result": 7.85, "unit": "nM"}, {"measurement": "IC50", "setting": "MCF-7 cells [1]", "result": 1700, "unit": "nM"}, {"measurement": "IC50", "setting": "MCF-7 cells [2]", "result": "1920 to 2850", "unit": "nM"}, {"measurement": "% Cells in G1", "setting": "MCF7 cells", "result": 43.22, "unit": "%"}, {"measurement": "% Cells in G2/M", "setting": "MCF7 cells", "result": 30.38, "unit": "%"}, {"measurement": "% Cells in S", "setting": "MCF7 cells", "result": 18, "unit": "%"}]}
